Reference: EP0471296B1, “1-(Pyridinylalkyl)-1H-indoles, indolines and related analogs” (HOECHST-ROUSSEL PHARMACEUTICALS INCORPORATED, priority 1990, dated 1992)

Tests used:
mice = assay: Dark Avoidance Assay (reversal of scopolamine-induced memory deficit); type: in vivo; conditions: s.c.
Procedure: In this assay mice are tested for their ability to remember an unpleasant stimulus for a period of 24 hours. A mouse is placed in a chamber that contains a dark compartment; a strong incandescent light drives it to the dark compartment, where an electric shock is administered through metal plates on the floor. The animal is removed from the testing apparatus and tested again, 24 hours later, for the ability to remember the electric shock.
If scopolamine, an anticholinergic that is known to cause memory impairment, is administered before an animal's initial exposure to the test chamber, the animal re-enters the dark compartment shortly after being placed in the test chamber 24 hours later. This effect of scopolamine is blocked by an active test compound, resulting in a greater interval before re-entry into the dark compartment.
The results for an active compound are expressed as the percent of a group of animals in which the effect of scopolamine is blocked, as manifested by an increased interval between being placed in the test chamber and re-entering the dark compartment.

[1] = biological target: T1, Brain Acetylcholinesterase (Rattus norvegicus, UniProt P37136); assay: In Vitro Inhibition of Acetylcholinesterase Activity in Rat Striatum (modified Ellman method); type: biochemical; conditions: rat striatum homogenate, read-out: % Inhibition @ Dose
T1 construct: corpora striata dissected free, weighed and homogenized in 19 volumes; from tissue; host or cells: rat corpora striata homogenate (male Wistar rats)
T1 sequence (P37136 32-614): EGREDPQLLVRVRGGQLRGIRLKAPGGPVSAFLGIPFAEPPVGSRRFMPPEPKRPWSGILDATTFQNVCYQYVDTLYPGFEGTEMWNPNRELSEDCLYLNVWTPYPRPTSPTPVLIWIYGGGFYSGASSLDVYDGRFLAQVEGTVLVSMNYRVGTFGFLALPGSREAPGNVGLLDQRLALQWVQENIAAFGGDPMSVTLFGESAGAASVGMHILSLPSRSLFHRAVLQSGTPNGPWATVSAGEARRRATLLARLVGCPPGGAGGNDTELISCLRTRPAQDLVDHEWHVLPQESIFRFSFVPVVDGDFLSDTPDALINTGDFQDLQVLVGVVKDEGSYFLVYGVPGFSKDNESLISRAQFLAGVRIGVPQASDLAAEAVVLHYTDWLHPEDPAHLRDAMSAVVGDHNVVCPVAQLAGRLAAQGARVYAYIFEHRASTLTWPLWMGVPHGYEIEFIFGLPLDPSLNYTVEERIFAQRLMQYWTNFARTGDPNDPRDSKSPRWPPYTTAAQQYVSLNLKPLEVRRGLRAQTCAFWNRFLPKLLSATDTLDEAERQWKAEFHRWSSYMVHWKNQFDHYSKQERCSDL
From the text: Cholinesterases are found throughout the body, both in the brain and in serum. However, only brain acetylcholinesterase (AChE) distribution is correlated with central cholinergic innervation. […] We have determined in vitro inhibition of acetylcholinesterase activity in rat striatum according to the method described below.
In Vitro Inhibition of Acetylcholinesterase Activity in Rat Striatum
Acetylcholinesterase (AChE), which is sometimes called true or specific cholinesterase, is found in nerve cells, skeletal muscle, smooth muscle, various glands and red blood cells. AChE may be distinguished from other cholinesterases by substrate and inhibitor specificities and by regional distribution.
It is generally accepted that the physiological role of AChE is the rapid hydrolysis and inactivation of acetylcholine. […]
• A. Reagents- • 1. […] If active, IC₅₀ values are determined from the inhibitory activity of subsequent concentrations. • B. Tissue Preparation - Male Wistar rats are decapitated, brains rapidly removed, corpora striata dissected free, weighed and homogenized in 19 volumes (approximately 7 mg protein/ml) of 0.05 M phosphate buffer, pH 7.2, using a Potter-Elvehjem homogenizer. […] Assay Enzyme activity is measured with the Beckman DU-50 spectrophotometer. […] This program also calculates the rate of absorbance change for each cuvette. […]

CCCC(c1ccncc1)n1ccc2ccccc21 (stereo not shown) [1-[1-(4-pyridinyl)-butyl]-1H-indole, 1-[1-(4-Pyridinyl)butyl]-1H-indole]
% of Animals with Scopolamine-Induced Memory Deficit Reversal (mice; dose 0.3 mg/kg of body weight): 20%

CC[C@@H]1C(=O)OC[C@@H]1Cc1cncn1C [Pilocarpine]
% of Animals with Scopolamine-Induced Memory Deficit Reversal (mice; dose 5.0 mg/kg of body weight): 13%

CN1CCC2(C)c3cc(O)ccc3N(C)C12 (stereo not shown) [Eseroline]
inhibition at 6.4 µM ([1]; 6.4 µM): 50%

c1ccc2c(c1)ccn2Cc1ccncc1 [1-(4-pyridinylmethyl)-1H-indole, 1-(4-Pyridinylmethyl)-1H-indole]
% of Animals with Scopolamine-Induced Memory Deficit Reversal (mice; dose 0.3 mg/kg of body weight): 33%
% of Animals with Scopolamine-Induced Memory Deficit Reversal (mice; dose 1.0 mg/kg of body weight): 20%

Nc1c2c(nc3ccccc13)CCCC2 [Tacrine]
% of Animals with Scopolamine-Induced Memory Deficit Reversal (mice; dose 0.63 mg/kg of body weight): 13%

Oc1ccc2c(ccn2Cc2ccncc2)c1 [1-(4-pyridinylmethyl)-1H-indol-5-ol, 1-(4-Pyridinylmethyl)-1H-indol-5-ol]
inhibition at 100 µM ([1]; 100 µM): 24%
